# Values joined by “and” are separate entries in the source; they are usually repeats but may differ in a detail not shown here. Equal entries are not always repeated.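 Briefly, cells in 96-well plates were exposed to five compound concentrations for 48 h, and endpoints were estimated by linear interpolation. GI50 marks 50% less growth. TGI marks complete inhibition of growth.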
# Experiments:
# Assay in all cases: NCI anticancer screen, dose series, 48 h
# HCT-15 colon = tested on: HCT-15 colon
# UACC-257 melanoma = tested on: UACC-257 melanoma
# OVCAR-4 ovarian = tested on: OVCAR-4 ovarian
# NCI/ADR-RES ovarian = tested on: NCI/ADR-RES ovarian
# A498 renal = tested on: A498 renal
# OVCAR-3 ovarian = tested on: OVCAR-3 ovarian
# SK-MEL-28 melanoma = tested on: SK-MEL-28 melanoma
# MCF7 breast = tested on: MCF7 breast
# IGROV1 ovarian = tested on: IGROV1 ovarian
# HS 578T breast = tested on: HS 578T breast
Compound,GI50 (HCT-15 colon) [µM],TGI (HCT-15 colon) [µM],GI50 (UACC-257 melanoma) [µM],TGI (UACC-257 melanoma) [µM],GI50 (OVCAR-4 ovarian) [µM],TGI (OVCAR-4 ovarian) [µM],GI50 (NCI/ADR-RES ovarian) [µM],TGI (NCI/ADR-RES ovarian) [µM],GI50 (A498 renal) [µM],TGI (A498 renal) [µM],GI50 (OVCAR-3 ovarian) [µM],TGI (OVCAR-3 ovarian) [µM],GI50 (SK-MEL-28 melanoma),TGI (SK-MEL-28 melanoma) [µM],GI50 (MCF7 breast) [µM],TGI (MCF7 breast) [µM],GI50 (IGROV1 ovarian) [µM],TGI (IGROV1 ovarian) [µM],GI50 (HS 578T breast) [µM],TGI (HS 578T breast) [µM]
CC(C)NCCCn1c(Sc2cc3c(cc2I)OCO3)nc2c(N)ncnc21,0.441,> 100,0.308,13.5,> 33.3,> 100,3.66,> 100,0.435,5.6,0.585,> 100,0.418 µM,44.5,0.0453,> 100,0.0885,3.52,1.28,> 100
COC1C=COC2(C)Oc3c(C)c(O)c4c(c3C2=O)/C(=N/C2CCC(O)OC2C)C=C(NC(=O)/C(C)=C\C(=O)C2CC2C(O)C(C)C(O)C(C)C(OC(C)=O)C1C)C4=O (configuration not stated),,9.79,,5.98,,10.6,,50.4,,8.36,,5.21,,4.32,,4.74,,6.13,,8.38
COc1ccc(-c2cc(-c3ccc(C)cc3)nc3nc(=S)[nH]c(N)c23)cc1,23.9,64.4,22.8,45.3,74.3,> 100,32.2,> 100,19.2,39.4,13.6,30.4,40.6 µM,> 100,15.8,69.4,28.2,78.4,17.9,46.9
C[C@@H]1CN(Cc2ccc(F)cc2)[C@@H](C)CN1C(=O)c1cc2c(C(=O)C(=O)N(C)C)cn(C)c2cc1Cl,18.3,47.3,15.7,34.7,22.1,> 90.3,14.9,52.7,9.9,43.8,18.7,39.2,13 µM,35.2,15.2,37.3,19.5,49.7,19.8,62.8
O=C(/C=C/c1ccccc1)CCN1CCOCC1,,24.4,,21.3,,42.5,,55.5,,44,,33.3,,27.3,,24.1,,27.1,,> 88.5
CN=c1ccc2nc3ccc(N)cc3sc-2c1,1.62,68,1.18,5.04,0.689,7.07,1.6,8.44,79.5,> 100,1.02,13.8,7.36 µM,24.1,1.63,6.5,2.54,6.24,17,59.6
O=C(O)c1ccc(C(=O)c2ccccc2)c(C(=O)O)c1,,> 100,,> 100,,> 100,,> 100,,> 100,,> 100,,> 100,,> 100,,> 100,,> 100
O=C1/C(=C/c2ccccc2[N+](=O)[O-])Cc2ccccc21,1.66,4.71,1.83,4.35,2.95,29.4,3.35,40.6,2.17,5.36,1.72,3.2,2.1 µM,4.2,1.38,11.8,1.25,8.59,3.7,> 100
CN[C@@H](C)C(=O)N[C@H](C(=O)N1CCC[C@H]1C(=O)Nc1sc(-c2ncco2)nc1-c1ccccc1)C1CCCCC1,22.6,> 78.7,17.5,34,3.26,> 100,27.4,> 83.2,26.6,> 88,38.7,> 100,16.3 µM,33.9,21.7,> 100,47.5,> 100,50,> 100
OCC1OC(n2cnc3c(N/N=C\c4ccccn4)ncnc32)C(O)C1O (configuration not stated),0.129,> 100,1.24,8.68,0.115,,0.185,11.7,0.762,> 100,0.319,3.04,0.995 µM,> 100,0.122,> 100,0.41,8.98,1.78,> 51.4
O=C1NC(=O)C(N2C(=O)c3ccccc3C2=O)CC1O (configuration not stated),> 100,> 100,> 100,> 100,> 100,> 100,> 100,> 100,> 100,> 100,> 100,> 100,> 100 µM,> 100,> 100,> 100,> 100,> 100,> 100,> 100
NC(=O)c1csc(C2OC(CO)C(O)C2O)n1 (configuration not stated),4.97,1440,,> 10000,,1160,47.4,3010,,> 9690,22.2,7030,> 80.6 µM and 17.2 µM,1690,76.3,7340,> 72.8,5650,77.7,875
O=C1OCC2=C1C(c1ccc(Cl)c(Cl)c1)c1cc3c(cc1N2CCO)OCCO3 (configuration not stated),0.245,> 50,0.181,19.4,0.382,> 50,0.239,3,0.147,1.84,0.127,0.351,0.412 µM,> 38.6,0.208,> 50,0.542,> 33,0.273,> 37.6
OCc1ccc(N2CCCC2c2ccccc2)cc1Cl (configuration not stated),4.24,20,0.544,2.11,1.39,14.2,3.54,17.7,0.136,0.306,2.3,10.1,8.16 µM,24.6,1.42,13.2,0.187,0.813,7.4,30.8
CC(=O)/C=C/c1cn(C(=O)OC(C)(C)C)c2ccc(Br)cc12,20.9,> 100,> 70.3,> 100,25.7,> 100,17.9,45.4,20.1,39.7,13,28.3,25.9 µM,> 68.1,9.71,46.5,15.9,39.5,26.8,65.4
O=S(=O)(Nc1cc(Sc2cccc3cccnc23)c(O)c2ccccc12)c1ccc(F)cc1,0.461,3.16,1.75,4.56,0.504,1.8,0.731,5.62,3.96,24.1,0.869,3.08,1.56 µM,4.16,1.05,3.21,1.06,4.2,4.44,45.7
c1cnn2ncc(-c3ccnc(NCCCN4CCOCC4)n3)c2c1,8.01,> 25,6.68,> 22.1,11,> 25,6.78,> 25,4.18,12.2,6.16,> 21.9,5.65 µM,> 18,5.97,> 19,7.51,> 25,6.2,> 23.1
O=[N+]([O-])c1ccc(C=Cc2ccccc2)cc1.[C-]#[O+].[C-]#[O+].[C-]#[O+].[Cr],43.4,> 100,44.4,> 100,8.93,> 100,13.4,> 100,7.53,> 100,21.2,> 100,> 100 µM,> 100,5.63,> 100,6.78,> 100,62.9,> 100
Fc1ccc(/C=N/n2c(-c3ccc(F)c(Cl)c3)nn(CNc3ccccc3C(F)(F)F)c2=S)cc1,79.4,> 100,42.5,> 100,57.4,> 100,41.2,> 100,12.5,63.7,53.9,> 100,97.2 µM,> 100,30.7,> 100,83.6,> 100,45.2,> 100
O=C(O)CN1CCN(CC(=O)O)CC(=O)[O][Hg][O]C(=O)C1,21.1,46.5,15.4,28.7,17.7,34,30.5,> 81.3,> 100,> 100,16.9,30.6,19.2 µM,34.8,20.3,45.1,7.29,28.4,> 43.9,> 71.3
COc1cccc(OC(=O)c2ccc(C(F)(F)F)nc2Nc2cc(Cl)ccc2C)c1,4.33,> 100,13.3,54.8,> 100,> 100,19.6,> 100,4.19,20.9,22.9,46.8,9.26 µM,> 100,4.2,> 100,8.35,> 100,1.23,4.79
COc1ccccc1-c1cc(=O)c2cc(C)cnc2[nH]1,,> 100,,> 100,,> 100,,47.1,,79.2,19.5,60.2,,> 100,,> 100,,> 100,,> 100
NNC(=O)CS(=O)(=O)Nc1ncccn1,,> 100,,> 100,,> 100,,> 100,,> 100,,> 100,,> 100,,> 100,,> 100,,> 100
Cc1cc(S(=O)(=O)/N=C(/N)Nc2ccccc2O)c(SCc2ccccc2)cc1Cl,12.1,28,14.6,30.4,11.4,34.9,16.7,36.6,21.2,39.1,14.5,34.1,18.6 µM,43.9,15.9,55.7,11,26.9,21.8,47.9
COc1ccc(-c2nc(Nc3cc(C)[nH]n3)c3ccccc3n2)cc1,1.34,> 100,13,65.2,2.34,> 72.5,3.25,> 58.1,0.271,1.46,3.72,38.8,5.12 µM,> 100,1.71,44.6,0.686,7.12,0.678,4.6
CCc1ccc2c(c1)N(CCO)C1=C(C(=O)OC1)C2c1cccc(Br)c1 (configuration not stated),0.584,15.8,0.623,19.6,0.738,17.3,0.278,2.21,0.373,8.84,0.296,1.23,0.473 µM,14.3,0.244,1.68,2.56,25.9,0.468,20.9
O=C(/C=C/c1cc2ccccc2[nH]c1=O)/C=C/c1cc2ccccc2[nH]c1=O,9.96,> 100,8.32,19.6,19.2,> 100,> 78,> 100,> 50.1,> 100,12.1,> 63.5,14.8 µM,> 66.5,3.84,> 47.7,> 19.7,> 49.3,> 39.9,> 100

# — PubChem BioAssay (NCI)
